A value given as a limit tells only on which side of the number the result lay.

For orientation: melting point means the temperature, or range, at which the solid turns liquid.

On to `CC(CCC(O)C(C)(C)O)C1CCC2C3C(O)CC4CC(O)CCC4(C)C3CC(O)C12C` (stereo not drawn), for which the melting point was in the range of 199 to 200 °C.
Compound `CCCC(CCC)NC(=O)Nc1ccc(Cl)cc1` yielded a melting point of 135 to 136 °C.
As for `CCCc1nc2cccc(C(=O)O)c2n1Cc1ccc(-c2ccccc2-c2nc(=O)o[nH]2)cc1`, the figure is 169 to 171 °C.
In the case of `COc1cc2oc(=O)c3c(c2cc1OC)CCN(CCN1CC2CCCC(C2)C1)C3` it was 122 to 125 °C.
In the case of `C=Cc1c(C(=O)O)nc(Cl)c(F)c1N` it was 164 to 166 °C.
In turn, `CCNC(=O)C1OC(n2cnc3c(NCC(c4ccccc4)c4ccccc4)nc(NC4CCCC4)nc32)C(O)C1O` (stereo not drawn) gave a melting point of 122 to 128 °C.
In the case of `Brc1ccc2c(c1)C1(c3ccccc3-c3ccccc31)c1cc(Br)ccc1-2` it was 340 to 341 °C; in that of `NC[C@H]1C=Cc2cc(F)cc(-c3ccccc3Cl)c2O1`, 145 to 147 °C; in that of `O=S1N=C(NCCCN(Cc2cccs2)c2ccccn2)C(NCc2ccncc2)=N1` (stereo not drawn), 129 to 130 °C.
In the case of `CCCCCCCCCCCCc1nnn(C(CCCCCCCCCCCC)C(=O)Nc2c(OC)cc(OC)cc2OC)n1` (stereo not drawn) it was 138 to 140 °C; in that of `Cc1ccc(-n2c(-c3ccc(S(C)(=O)=O)cc3)nc(O)c(C#N)c2=O)cc1C`, above 285 °C; in that of `CC(C)(C#N)c1ccc(Cl)nc1`, 63 to 65 °C.
In the case of `Cc1cc(NC(=O)Cc2ccccc2)cc(C)c1S(=O)(=O)C[N+](=O)[O-]` it was 158 to 159 °C.
As to `O=C(Nc1cccc(Br)c1)N(Cc1ccccc1)Cc1ccccc1`, the melting point lay in the range of 102 to 103 °C.
In the case of `CC1(C)Oc2ccc(C#N)cc2C(n2ccc(O)cc2=O)C1O` (stereo not drawn) it was 248 to 250 °C.
Compound `C#CCOc1cc(OCC=C)ccc1-c1nc2cnncc2[nH]1` displayed a melting point of 265 °C.
In the case of `CC(=O)c1ccc(C(=O)O)o1` it was 189 to 195 °C.
In the case of `CC(=O)C1=C(C)Nc2nc(N)nc(N)c2C1c1ccccc1Cl` (stereo not drawn) it was 254 °C; in that of `CCC(CC)Oc1cc(C)nc2c1CCC(=O)N2c1c(C)cc(C)cc1C`, 138 to 140 °C; in that of `C=C(C)C(=O)OCCCc1ccc(-c2ccc(-c3ccc(OC(=O)C(=C)C)cc3F)c(F)c2)cc1`, 67 °C.
In the case of `CCN1c2ncc(CC(O)c3ccncc3)cc2C(=O)N(C)c2ccc(F)nc21` (stereo not drawn) it was 174 to 176 °C; in that of `CCCCc1nc2c(N)nc3ccccc3c2n1CCCCS(=O)(=O)c1ccccc1`, 179 to 180 °C; in that of `CC(=O)OCC(=O)C1=CCC2C3CCC4=CC(=O)CCC4(C)C3=CCC12C` (stereo not drawn), 128 to 129 °C.
In the case of `CC1(C)CC(O)CC(C)(C)N1N=Nc1ccc([N+](=O)[O-])cc1`, the melting point is 108 to 110 °C.
`CC(C)CCCC(=O)OC1c2ccccc2C(=O)N1c1ccc2ccc(Br)nc2n1` (stereo not drawn) registered a melting point of 136 °C.
Turning to `Cc1cc(-c2cccc(NC(=O)C3CCC3)c2)n2ncc(C(=O)c3cccs3)c2n1`, the melting point lay within 121 to 123 °C.
In the case of `CC(C)=CCN1Cc2c(Br)ccc3[nH]c(=O)n(c23)CC1C` (single isomer, unassigned; (+)) it was 125 °C; in that of `Cc1nc2c(Cl)c(NC(=O)Cc3ccc(Cl)cc3)ccc2s1`, 227 to 229 °C.
As for `CC(C=Cc1ccccc1)NC(=O)c1ccccc1` (racemic), the figure is 135 °C.
As for `Cn1ncc2ccc(OCCCCl)cc2c1=O`, the figure is 252 to 253 °C.
With `CCCn1cc(Cc2ccc(C(=O)O)cc2OC)c2cc(CC3CCN(C)C3=O)ccc21` (stereo not drawn), the melting point fell in the range of 98 to 107 °C.
In the case of `Cn1cc(OS(C)(=O)=O)c(=O)c2ccc(C#N)cc21` it was 268 °C.
In the case of `Nc1oc2ccc([N+](=O)[O-])cc2c(=O)c1C=O` it was 228 to 229 °C; in that of `FC(F)(F)Oc1ccc(C2NCCc3c2[nH]c2ccccc32)cc1` (stereo not drawn), 68 to 69 °C; in that of `CCCOc1cccc(-c2ccnc(Nc3cc(OC)c(OC)c(OC)c3)n2)c1`, 107 °C.
In the case of `Nc1c(F)c(F)nc(-n2cc(C(=O)O)c(=O)c3cc(F)c(F)c(Cl)c32)c1F` it was 280 to 283 °C; in that of `COc1ccc(-c2cncc(OC3SCC(O)C(O)C3O)c2)cc1OC` (stereo not drawn), 211 °C.
As for `CCOc1cc2c(cc1O)C(=NO)CC1C2CCC2(C)C(OC(C)=O)CCC12` (stereo not drawn), the melting point was in the range of 226 to 227 °C.
`CCC(CC)Cn1cc(C(=O)C(=O)O)c2cc(-c3ccc(OC(F)(F)F)cc3)ccc21` came in with a melting point of 98 to 99 °C.
In the case of `O=C(O)CCc1cc(Cl)ccc1C(=O)O` it was 156 to 158 °C.
As for `CCn1c(N)c(-c2ncc[nH]2)c(=O)c2ccc(-c3ccc(C(C)C(=O)NCc4ccncc4)cc3)nc21` (stereo not drawn), the figure is 186 °C; as for `N=C(Nc1ccccc1-c1ccccc1)C1CCCCC1`, 148 to 150 °C.
In the case of `COC(=O)C1Oc2cc(Cl)ccc2C(C)(c2ccccc2)O1` (stereo not drawn) it was 144 °C; in that of `COc1cc2c(cc1C(F)(F)F)N(C(=O)Nc1cc(-c3ccccc3)cc(-c3cccnc3)c1)CC2`, 150 to 151 °C.
`COc1ccc(S(=O)(=O)Nc2c(Nc3ccccc3)ncnc2OC)cc1` registered a melting point of 159 to 160 °C.
Take `CC1CCC2C(C)(C)C(=O)OC3OC4(C)CCC1C32OO4` (single isomer, unassigned; (+)): the melting point lay within 117 to 118 °C.
As for `O=CC(=O)c1ccc(OCCc2ccccc2)cc1`, the figure is 44 to 59 °C.
As for `CC(C(=O)c1ccccc1)(c1ccccc1)c1ccccc1Sc1ccccc1C(C)(C(=O)c1ccccc1)c1ccccc1` (stereo not drawn), the figure is 101 °C; as for `COc1ccc(-c2nc(-c3ccccc3)c(N(C)c3ccccc3)s2)cc1`, 100 to 101 °C; as for `Cc1cc(-c2nc3cc(F)cc(F)c3c(=O)[nH]2)cc(C)c1OCCN1CCCC1`, 234 to 235 °C.
As for `CCCCc1c(-c2cc(C)c(O)c(C)c2)[nH]c2ccccc12`, the figure is 83.1 to 84.2 °C.
`COC(Cn1cncn1)(c1ccc(F)cc1F)C(F)(F)S(=O)(=O)CCO` (stereo not drawn) showed a melting point of 108 to 110 °C.
As for `O=C(CCn1c2ccc(O)cc2c2c3c(c(-c4ccccc4Cl)cc21)C(=O)NC3=O)NS(=O)(=O)c1ccccc1`, the figure is 291 to 293 °C.
As for `CCCCCCCC(=O)c1ccc(CCC(CC)(CCOC(C)=O)NC(C)=O)cc1` (stereo not drawn), the figure is 66 to 69 °C.
In the case of `C=CCOc1ccccc1S(=O)(=O)NC(=O)n1nc(SCCF)n(C2CC2)c1=O` it was 15 °C.
`COc1ccc(-c2sc3c(c2CN(C)Cc2ccccc2)c(=O)c(C(C)O)cn3Cc2ccccc2F)cc1` (stereo not drawn) had a melting point of 183 to 187 °C.
The compound `Oc1ccc2cc(Oc3c(Cl)cc(C(F)(F)F)cc3Cl)ccc2c1` had a melting point of 158 °C.
As for `CCOC(=O)c1cnc2c3cc(NS(C)(=O)=O)ccc3ncn2c1=O`, the figure is 310 to 312 °C; as for `O=C1CCC(NC(=O)OCc2ccccc2)(C(=O)OCc2ccc([N+](=O)[O-])cc2)O1` (stereo not drawn), 127 to 128 °C; as for `CCC(=O)c1cc2c(cc1O)CCCC2`, 57 to 58 °C.
As for `CS(=O)c1cc(OCC(O)CNC2CCN(c3ccc(NS(=O)(=O)c4ccc(Br)cc4)cn3)CC2)ccc1O` (stereo not drawn), the figure is 147 °C.
As for `CC(=O)Nc1ncc2ncn(COC(COC(C)C)COC(C)C)c2n1`, the figure is 85 to 86 °C.
The compound `CCOC(=O)NC(=S)NCCOCC1=C(C(=O)OCC)C(c2cccc(Cl)c2Cl)C(C(=O)OC)=C(C)N1` (stereo not drawn) gave a melting point of 144 °C.
In the case of `C[C@H]1CN(c2ccccn2)[C@@H](C)CN1C1=c2ccccc2=NCN1c1ccccc1` (relative stereo) it was 68 to 70 °C.
In the case of `CCC(C)(C)c1cc(C(=O)c2ccccc2)c(O)cc1O` it was 100 to 104 °C; in that of `O=C(c1ccccc1F)c1ccc(O)c(Cl)c1Cl`, 128 to 131 °C; in that of `COc1ccc(C2CCN(c3c(C)c(C)c4c(c3C)C(O)(c3ccsc3)C(C)(C)O4)CC2)cc1OC` (stereo not drawn), 125 to 128 °C.
As for `Cc1cc(C(F)(F)F)nn1CC(=O)N1CCC(c2nc(NC(=O)C3CCCc4ccccc43)cs2)CC1` (stereo not drawn), the figure is 179 to 181 °C.
As to `CC(=NNc1ccc(C(F)(F)F)cc1)C(=O)O`, the melting point is 190 to 191 °C.
Regarding `COc1ccc2c(c1)[C@@]1(C(=O)O)CC=CC[C@H]1CC2` (relative stereo), the melting point amounted to 125 °C.
As for `Cc1nc(S)nn1-c1ccc([N+](=O)[O-])cc1`, the figure is 202 °C.
For the compound `CS(=O)(=O)c1ccc(-c2cnn(Cc3ccccc3)c(=O)c2Oc2ccc(F)cc2)cc1`, the melting point lay within 188 to 190 °C.
As for `CCCCN1C2=NCCN2C(c2ccccc2)c2cc(Cl)ccc21` (stereo not drawn), the figure is 97 to 97.5 °C; as for `Cc1nc2c3c(c(C(=O)N4CCOCC4)cc2n1C)CCC(c1ccccc1)O3` (stereo not drawn), 291 to 293 °C; as for `CNC(=S)C1(c2ccc(C)cn2)CCCS1` (stereo not drawn), 134 °C.
`CCCCNC[C@@H](O)[C@H](Cc1ccccc1)NC(=O)OCc1ccccc1` displayed a melting point of 118 to 120 °C.
In the case of `O=c1c2c(Cc3ccccc3Cl)n[nH]c2c2cccnc2n1-c1cccc(OC(F)(F)F)c1` it was 273 to 275 °C.
In the case of `CCCCCCCCCCCCCCCCC[C@@H](C[C@@H]1OC(=O)[C@H]1CCCCCC)OC(=O)[C@H](CC(C)C)NC=O` it was 64 to 65 °C; in that of `NS(=O)(=O)Oc1ccc(C(c2ccc(OS(N)(=O)=O)c(Br)c2)n2cncn2)cc1Br`, 98 to 102 °C.
Compound `CCOC(=O)Cc1c[nH]c2cc(-c3ccccc3)nn2c1=O` had a melting point of 245 to 250 °C.
Turning to `CCOC(=O)Cc1sc(Sc2cc(C(=O)OC)nc3ccccc23)nc1C`, the melting point is 94 to 95 °C.
Compound `CC1=C(C(=O)N(C)C)C(c2ccccc2)C(C(N)=O)=C(N)N1` (stereo not drawn) yielded a melting point of 236 °C.
Compound `CCCCC#CC#CCOc1ccc(C(=O)O)cc1` displayed a melting point of 165 to 166 °C.

The values above are taken from a melting point compilation (Tetko et al.; mined from patent text by program, amines drawn as free bases though some values may be those of a salt).
